According to patent publication US6881752B2 (University of Alabama, priority 1998, dated 2005):

What was measured:
[1] = molecular target: T1, insulin-dependent membrane tyrosine protein kinase activity (rat adipocytic membranes) (Rattus norvegicus, UniProt P15127); assay: Rat adipocytic membrane protein tyrosine kinase activity in the presence of 100 nM insulin; type: biochemical
T1 construct: from tissue; host or cells: epididymal fat pad adipocyte membranes, male Sprague Dawley rats
Experimental: (§1) 100% activity represents the activity in the absence of added chromium complexes or their components. 25 μL of a rat membrane suspension corresponding to 0.0895 mg protein/mL was utilized.
(§2) Fat cells from male Sprague Dawley rats were isolated using the procedures of Rodbell^19 and Anderson et al.^20 with modifications.^2 Three rats (not kept on a Cr-deficient diet) were sacrificed by decapitation, and their epididymal fat pads removed. Rat adipocytes were washed with 1% bovine serum albumin (BSA). 50 mM Hepes, pH 7.4 buffer containing 10 μg/mL leupeptin and 5 μg/mL aprotinin. Cells were homogenized with a manual teflon homogenizer and frozen and thawed five times. The lipid layer was removed, and the cell homogenate was centrifuged for one hour at 40,000 g. The supernatant was removed, and the pellet was suspended in Hepes buffer and used as the source of membrane phosphatase and kinase activity. Protein concentrations were analyzed using the BCA method (Pierce Chemical Co.) with BSA as standard.

[2] = test system: membrane phosphotyrosine protein phosphatase (rat adipocytic membranes); assay: Rat adipocytic membrane phosphotyrosine phosphatase activity, p-NPP substrate; type: biochemical; conditions: 5 mM p-NPP
Experimental: 125 μL of a rat membrane suspension corresponding to 0.0856 mg of protein/mL was utilized.
as §1, §2
p-nitrophenyl phosphate (p-NPP) was used to determine the amount of PTP activity using the method of Li et al.^21 The assay used 5 mM substrate in 0.05 M Tris, pH 7.5, unless noted. Activation of PTP activity by LMWCr and other Cr-containing species was examined as described by Davis et al.^2 Solutions of LMWCr, 1,2, and the Cr-amino acid mixture were incubated with the enzyme for fifteen minutes at 37° C. before initiation of the reaction. Hydrolyses proceeded for one hour at 37° C. The extent of hydrolysis was determined at 404 nm (ε=1.78×10^4M^−1cm^−1).

[3] = test system: adult-onset diabetic patients; conditions: cited from earlier work

T1 sequence (P15127 764-1383 limits assumed): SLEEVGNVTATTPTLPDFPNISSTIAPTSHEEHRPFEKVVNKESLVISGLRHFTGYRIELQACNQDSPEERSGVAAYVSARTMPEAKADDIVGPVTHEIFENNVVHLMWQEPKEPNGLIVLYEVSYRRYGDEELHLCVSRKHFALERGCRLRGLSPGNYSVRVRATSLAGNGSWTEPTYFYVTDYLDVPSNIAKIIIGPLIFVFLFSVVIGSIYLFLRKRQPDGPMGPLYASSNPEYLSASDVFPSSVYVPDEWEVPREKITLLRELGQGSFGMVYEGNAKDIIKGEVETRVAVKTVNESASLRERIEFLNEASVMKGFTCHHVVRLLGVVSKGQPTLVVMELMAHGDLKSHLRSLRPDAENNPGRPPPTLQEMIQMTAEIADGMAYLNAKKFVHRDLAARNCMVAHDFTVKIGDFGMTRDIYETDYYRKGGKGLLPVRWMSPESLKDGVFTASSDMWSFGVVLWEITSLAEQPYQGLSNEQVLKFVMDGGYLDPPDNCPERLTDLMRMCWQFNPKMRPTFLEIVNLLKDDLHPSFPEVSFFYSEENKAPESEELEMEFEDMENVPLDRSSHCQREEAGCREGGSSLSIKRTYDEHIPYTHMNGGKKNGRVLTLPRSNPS
T1 sequence (P15127 27-759 partner limits assumed): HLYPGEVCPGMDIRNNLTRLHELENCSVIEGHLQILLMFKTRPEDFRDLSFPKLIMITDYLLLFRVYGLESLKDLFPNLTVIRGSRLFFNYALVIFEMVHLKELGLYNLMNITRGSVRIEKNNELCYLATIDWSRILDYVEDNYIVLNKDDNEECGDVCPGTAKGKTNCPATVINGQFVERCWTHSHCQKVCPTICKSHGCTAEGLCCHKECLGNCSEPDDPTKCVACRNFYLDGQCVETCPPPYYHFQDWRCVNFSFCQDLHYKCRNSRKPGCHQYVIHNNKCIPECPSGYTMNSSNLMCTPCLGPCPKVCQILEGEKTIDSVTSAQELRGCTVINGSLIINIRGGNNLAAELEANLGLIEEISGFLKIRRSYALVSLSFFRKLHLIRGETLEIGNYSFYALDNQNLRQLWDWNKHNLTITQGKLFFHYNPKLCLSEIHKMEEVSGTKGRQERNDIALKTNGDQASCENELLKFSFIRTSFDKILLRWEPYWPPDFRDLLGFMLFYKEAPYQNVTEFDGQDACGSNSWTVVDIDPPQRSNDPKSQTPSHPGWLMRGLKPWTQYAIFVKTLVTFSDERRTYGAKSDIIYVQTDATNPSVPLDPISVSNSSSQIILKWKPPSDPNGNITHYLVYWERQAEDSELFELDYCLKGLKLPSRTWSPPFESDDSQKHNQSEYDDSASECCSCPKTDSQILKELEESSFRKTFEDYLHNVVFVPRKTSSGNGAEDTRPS
T1 sequence (P01317 25-54 partner limits assumed): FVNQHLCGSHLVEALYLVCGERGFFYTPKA
T1 sequence (P01317 85-105 partner limits assumed): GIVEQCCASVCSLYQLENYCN

Row | effect on insulin-dependent membrane kinase activity [1] | effect on membrane phosphatase activity [2] | Molecule | insulin requirements ([3]; 138 adult-onset diabetic patients) | glycemic control ([3]; 180 adult-onset diabetic patients)
1 | do not potentiate | do not potentiate | CCC(=O)O [Propionic acid] |  | 
2 | inhibits | inhibits | [Cr3O(O2CCH3)6 (H2O)3]Cl [compound 2] |  | 
3 |  |  | chromium(III) picolinate | reduced insulin requirements | improved glycemic control

Row | Molecule | effect on insulin-dependent membrane kinase activity [1] | effect on membrane phosphatase activity [2] | insulin requirements ([3]; 138 adult-onset diabetic patients) | glycemic control ([3]; 180 adult-onset diabetic patients)
4 | O=[N+]([O-])O [nitrate] | do not potentiate | do not potentiate |  | 
